Assays:
MKN45 xenograft tumor [1] = assay: MKN45 xenograft: 1D228 alone versus Tepotinib and Larotrectinib; type: in vivo, nude mouse
Method: Male BALB/c nude mice (5-week old, 18–20 g) were purchased from Beijing Vital River Laboratory Animal Technology (Beijing Vital River LaboratoryAnimal Technology Co., Ltd., Beijing,China) and allowed to acclimate for 1 week, maintained at constant room temperature and fed a standard rodent chow and water. 1 × 10^7 cells/mL cancer cells grown in logarithmic phase were harvested and resuspended in FBS-free 1640 medium. Then, 100 μL of the cell suspension was subcutaneously injected into the right flank of each mouse. When the tumour volume was reached about 600–800 mm^3, it was removed, minced into small pieces of equal volume (2 × 2 × 2 mm^3), and transplanted subcutaneously into the nude mice. […]

ASPC1 = assay: Transwell migration assay; type: cell-based, human
Method: (§1) Migration assay was performed using an 8 μm-pore Boyden chamber (24-well, #353097, Corning, NY, USA). Treated with 1, 5, and 10 nM 1D228 for 48 h. A total of 5 × 10^4 cells were seeded in serum-free medium in the top chamber and allowed to migrate for 48 h toward the bottom chamber containing 10% fetal bovine serum medium. Cells were fixed and permeabilized with cold 70% ethanol and methanol and stained with 0.4% crystal violet. The average number of migrating cells was evaluated from at least four independent microscope fields.

MHCC97H = assay: Transwell migration assay; type: cell-based, human; details: transwell, 1, 5 and 10 nM
Method: as §1

TRKC = molecular target: T1, TRKC (Homo sapiens, UniProt Q16288); assay: HTRF kinase assay; type: biochemical
T1 construct: purchased Invitrogen (c-Met, TRKA, TRKB, TRKC)
Method: (§2) HTRF kinase assay to test the activity of compound 1D228 on c-Met and NTRK kinases: c-Met, TRKA, TRKB and TRKC as well as the Zˊ-Lyte kinase Kit were purchased from Invitrogen. The experiments were performed according to the instructions of the manufacturer. Concentrations consisting of 2 or 10 levels from 0.001 to 1 mM were used for 1D228. Plate was measured on multifunction microplate reader (Molecular Devices, Flex Station 3). Curve fitting and data presentations were performed using Graph Pad Prism version 5.0. Every experiment was repeated at least 3 times.

TRKB = molecular target: T2, TRKB (Homo sapiens, UniProt Q16620); assay: HTRF kinase assay; type: biochemical
T2 construct: purchased Invitrogen
Method: as §2

c-Met kinase = molecular target: T3, c-Met kinase (Homo sapiens, UniProt P08581); assay: HTRF kinase assay; type: biochemical
T3 construct: purchased Invitrogen
Method: as §2

TRKA = molecular target: T4, TRKA (Homo sapiens, UniProt P04629); assay: HTRF kinase assay; type: biochemical
T4 construct: purchased Invitrogen (c-Met, TRKA, TRKB, TRKC)
Method: as §2

[2] = Hematoxylin and eosin histology of major tissues; type: in vivo; details: following various treatments
Method: Female and male Kunming mice (36 mice each, 18 ~ 25 g) were purchased and housed at the SPF (Beijing) Biotechnology Co. in pathogen-free condition, maintained at constant room temperature and fed a standard rodent chow and water. The mice were randomly divided into experimental group and control group. […]. The heart, liver, lung and kidney of mice in the 750 mg/kg dose group were taken and fixed for HE staining.

MKN45 xenograft tumor [3] = assay: MKN45 xenograft tumor model; type: in vivo, BALB/c nude mice; details: ig
Method: (§3) Male BALB/c nude mice (5-week old, 18–20 g) were purchased from Beijing Vital River Laboratory Animal Technology (Beijing Vital River LaboratoryAnimal Technology Co., Ltd., Beijing,China) and allowed to acclimate for 1 week, maintained at constant room temperature and fed a standard rodent chow and water. 1 × 10^7 cells/mL cancer cells grown in logarithmic phase were harvested and resuspended in FBS-free 1640 medium. Then, 100 μL of the cell suspension was subcutaneously injected into the right flank of each mouse. When the tumour volume was reached about 600–800 mm^3, it was removed, minced into small pieces of equal volume (2 × 2 × 2 mm^3), and transplanted subcutaneously into the nude mice. When the tumour volume was reached about 200–400 mm^3, the xenograft tumour-bearing nude mice were randomly allocated to five groups (vehicle-treated, 1D228-2mgd-treated, 1D228-4mgd-treated […] Tepotinib-treated groups, with 6 or 8 mice (The number of mice were determined according to previous experience on xenograft tumor models) per group. Each group was dosed by intragastric administration (ig) for 7–14 days. Tumour volume and body weights were recorded every day after drug treatment. At the end of the observation period, the animals were euthanized by cervical dislocation and the tumour bulks were peeled off conformed to the Guide for the Care and Use of Laboratory Animals as published by the US National Institutes of Health (NIH Publication No. 85-23, revised 1996) and approved by the Institutional Ethics Review Board of Binzhou Medical University. There was no blinding was done during the animal experiment. No animals were excluded from the analysis.

MHCC97H xenograft tumor = MHCC97H xenograft tumor model; type: in vivo, BALB/c nude mice; details: ig, calculated through tumor weight
Method: as §3

[4] = system: phosphorylated c-Met in MHCC97H cells; assay: Western blot of phosphorylated c-Met; type: cell-based, human; details: concentration as low as 1 nM
Method: (§4) Proteins (25–50 ug/lane) were separated on a 4–12% Bis-Tris NuPAGE gel and blotted onto a PVDF membrane (FluoroTrans; VWR). […] Horseradish peroxidase-conjugated secondary antibodies were from Cell Signaling. Proteins were visualized by enhanced chemiluminescence (Millipore) on ChemiDoc camera (Bio-Rad) and protein expression levels were quantified using the lmageJ software. Full anduncropped western blots are presented in Supplemental File.

[5] = system: phosphorylated c-Met in MKN45 cells; assay: Western blot of phosphorylated c-Met; type: cell-based, human; details: MKN45, concentration as low as 1 nM
Method: as §4

MNK45 cell line = assay: Apoptosis assay, annexin V and PI staining, flow cytometry; type: cell-based, human; details: control group 5%
Method: MHCC97H or MKN45 cells were seeded in 6-well plates (3 × 10^4 cells/well) and incubated in the presence or absence of compound 1D228, for the cell apoptosis assay, cells were harvested and incubated with 5 μL of Annexin-V/FITC (Keygen Biotech, China) in binding buffer (10 mM HEPES, 140 mM NaCl, and 2.5 mM CaCl2 at pH 7.4) at room temperature for 15 min. PI solution was then added to the medium for another 10 min-incubation. Almost 10,000 events were collected for each sample and analysed by flow cytometry (Beckman Coulter, Epics XL). For the cell cycle assay, cells were fixed in ice-cold 70% ethanol overnight. After the ethanol was removed the next day, the cells were re-suspended in ice-cold PBS, treated with RNAse A (Keygen Biotech, China) at 37 °C for 30 min, and then incubated with the DNA staining solution propidium iodide (PI, Keygen Biotech, China) at 4 °C for 30 min. Approximately 10,000 events were detected by flow cytometry (Beckman Coulter, Epics XL) at 488 nm. The data regarding the number of cells in different phases of the cell cycle were analysed using EXPO32 ADC analysis software.

T1 sequence (Q16288 32-839): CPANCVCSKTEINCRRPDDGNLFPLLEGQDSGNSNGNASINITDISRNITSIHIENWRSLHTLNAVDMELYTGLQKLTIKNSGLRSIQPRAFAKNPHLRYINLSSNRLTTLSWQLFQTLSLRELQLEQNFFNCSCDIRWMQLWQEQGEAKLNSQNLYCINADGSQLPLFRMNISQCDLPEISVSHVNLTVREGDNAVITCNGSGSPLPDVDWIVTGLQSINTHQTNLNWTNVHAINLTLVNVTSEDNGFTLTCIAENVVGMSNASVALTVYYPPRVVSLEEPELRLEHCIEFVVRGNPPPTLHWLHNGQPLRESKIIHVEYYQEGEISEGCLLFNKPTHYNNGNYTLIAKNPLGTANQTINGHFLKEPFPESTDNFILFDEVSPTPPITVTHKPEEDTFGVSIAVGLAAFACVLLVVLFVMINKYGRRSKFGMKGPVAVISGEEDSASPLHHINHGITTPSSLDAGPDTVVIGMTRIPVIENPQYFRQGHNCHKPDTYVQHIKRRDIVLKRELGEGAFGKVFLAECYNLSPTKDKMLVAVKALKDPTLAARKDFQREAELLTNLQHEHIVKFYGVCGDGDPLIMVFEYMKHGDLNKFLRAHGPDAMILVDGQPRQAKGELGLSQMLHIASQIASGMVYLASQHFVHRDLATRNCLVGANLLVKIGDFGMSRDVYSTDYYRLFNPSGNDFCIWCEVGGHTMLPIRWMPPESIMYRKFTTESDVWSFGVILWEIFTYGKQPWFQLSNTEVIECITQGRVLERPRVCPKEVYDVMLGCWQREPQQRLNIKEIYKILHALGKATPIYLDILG
T4 sequence (P04629 33-796): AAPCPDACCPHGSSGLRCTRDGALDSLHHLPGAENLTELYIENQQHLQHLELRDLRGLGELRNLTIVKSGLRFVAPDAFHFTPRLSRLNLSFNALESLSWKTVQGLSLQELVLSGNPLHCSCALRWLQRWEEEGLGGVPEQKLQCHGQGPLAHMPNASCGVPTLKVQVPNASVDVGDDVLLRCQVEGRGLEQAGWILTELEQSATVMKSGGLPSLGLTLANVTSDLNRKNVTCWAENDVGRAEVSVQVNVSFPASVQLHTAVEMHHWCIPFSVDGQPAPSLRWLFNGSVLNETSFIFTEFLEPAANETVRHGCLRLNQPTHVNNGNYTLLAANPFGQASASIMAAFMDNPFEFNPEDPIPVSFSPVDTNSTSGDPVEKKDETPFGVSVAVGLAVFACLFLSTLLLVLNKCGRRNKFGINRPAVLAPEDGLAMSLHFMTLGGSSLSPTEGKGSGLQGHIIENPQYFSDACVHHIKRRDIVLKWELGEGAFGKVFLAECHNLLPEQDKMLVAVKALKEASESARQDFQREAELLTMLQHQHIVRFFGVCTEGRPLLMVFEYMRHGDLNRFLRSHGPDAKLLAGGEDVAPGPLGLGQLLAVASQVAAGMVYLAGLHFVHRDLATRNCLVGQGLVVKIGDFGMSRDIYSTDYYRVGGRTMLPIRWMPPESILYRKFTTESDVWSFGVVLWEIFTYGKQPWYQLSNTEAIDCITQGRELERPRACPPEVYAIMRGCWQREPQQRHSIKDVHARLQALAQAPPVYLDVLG
T2 sequence (Q16620 32-822): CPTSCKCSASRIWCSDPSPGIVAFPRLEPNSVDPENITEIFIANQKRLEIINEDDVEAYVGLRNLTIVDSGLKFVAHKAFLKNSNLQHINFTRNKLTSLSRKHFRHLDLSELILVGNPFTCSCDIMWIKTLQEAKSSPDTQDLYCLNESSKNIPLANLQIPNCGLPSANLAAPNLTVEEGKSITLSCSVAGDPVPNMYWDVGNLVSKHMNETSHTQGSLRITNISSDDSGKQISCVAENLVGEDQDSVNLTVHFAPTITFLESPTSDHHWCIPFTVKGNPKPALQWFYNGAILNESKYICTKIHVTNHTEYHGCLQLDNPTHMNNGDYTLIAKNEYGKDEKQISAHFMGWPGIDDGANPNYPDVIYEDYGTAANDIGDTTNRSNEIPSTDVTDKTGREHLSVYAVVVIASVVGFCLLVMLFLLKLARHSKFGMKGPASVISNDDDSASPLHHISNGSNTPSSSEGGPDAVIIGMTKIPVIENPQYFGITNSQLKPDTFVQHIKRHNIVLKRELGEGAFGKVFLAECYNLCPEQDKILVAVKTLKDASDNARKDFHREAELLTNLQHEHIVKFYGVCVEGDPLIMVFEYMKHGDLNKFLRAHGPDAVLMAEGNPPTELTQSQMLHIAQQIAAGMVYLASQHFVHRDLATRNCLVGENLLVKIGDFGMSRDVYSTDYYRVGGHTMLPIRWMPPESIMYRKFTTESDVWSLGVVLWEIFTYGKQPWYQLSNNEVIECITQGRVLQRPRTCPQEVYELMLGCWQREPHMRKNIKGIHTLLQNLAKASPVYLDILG
T3 sequence (P08581 25-1390): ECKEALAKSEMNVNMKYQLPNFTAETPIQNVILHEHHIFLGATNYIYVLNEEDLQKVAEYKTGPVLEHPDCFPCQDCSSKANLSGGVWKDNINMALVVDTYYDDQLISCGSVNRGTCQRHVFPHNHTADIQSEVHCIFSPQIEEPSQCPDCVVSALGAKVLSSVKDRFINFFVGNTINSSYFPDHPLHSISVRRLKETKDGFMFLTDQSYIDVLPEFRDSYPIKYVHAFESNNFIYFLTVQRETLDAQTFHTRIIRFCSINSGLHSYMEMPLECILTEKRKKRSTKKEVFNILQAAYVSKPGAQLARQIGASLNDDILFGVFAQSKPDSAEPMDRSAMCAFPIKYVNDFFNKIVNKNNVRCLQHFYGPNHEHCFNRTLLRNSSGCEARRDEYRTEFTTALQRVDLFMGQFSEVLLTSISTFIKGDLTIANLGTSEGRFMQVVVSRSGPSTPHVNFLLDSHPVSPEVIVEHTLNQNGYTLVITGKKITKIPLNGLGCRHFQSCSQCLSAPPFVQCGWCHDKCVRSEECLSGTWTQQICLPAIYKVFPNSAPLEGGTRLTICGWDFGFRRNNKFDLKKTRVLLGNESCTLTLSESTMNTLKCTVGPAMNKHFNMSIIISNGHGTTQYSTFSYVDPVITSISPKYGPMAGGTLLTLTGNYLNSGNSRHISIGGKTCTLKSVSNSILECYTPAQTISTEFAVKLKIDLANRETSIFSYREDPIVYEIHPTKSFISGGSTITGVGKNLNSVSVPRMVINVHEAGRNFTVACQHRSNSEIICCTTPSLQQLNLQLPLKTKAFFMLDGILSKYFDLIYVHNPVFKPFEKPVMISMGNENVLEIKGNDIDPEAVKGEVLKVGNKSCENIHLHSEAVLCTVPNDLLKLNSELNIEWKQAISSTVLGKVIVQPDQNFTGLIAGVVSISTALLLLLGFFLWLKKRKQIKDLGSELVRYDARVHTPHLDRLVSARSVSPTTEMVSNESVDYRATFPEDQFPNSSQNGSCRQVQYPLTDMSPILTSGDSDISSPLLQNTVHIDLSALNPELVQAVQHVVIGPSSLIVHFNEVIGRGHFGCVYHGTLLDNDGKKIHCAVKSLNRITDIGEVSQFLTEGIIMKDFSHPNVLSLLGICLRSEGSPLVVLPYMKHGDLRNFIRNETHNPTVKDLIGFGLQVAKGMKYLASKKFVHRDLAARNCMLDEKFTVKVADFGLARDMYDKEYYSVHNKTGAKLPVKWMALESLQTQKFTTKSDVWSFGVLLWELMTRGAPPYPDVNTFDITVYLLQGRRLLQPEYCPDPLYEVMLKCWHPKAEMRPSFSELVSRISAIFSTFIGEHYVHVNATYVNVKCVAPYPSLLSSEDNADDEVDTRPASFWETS

With `[2H][C@@](C)(c1cccc(-c2ncc(OCC3CCN(C)CC3)cn2)c1)n1nc(-c2cccc(C#N)c2)ccc1=O` [1D228] the Tumor volume reduction (MKN45 xenograft tumor [1]; MKN45 gastric cancer nude mouse transplant tumor) was ~90%, the “Body weight of tumor bearing mice” value (MKN45 xenograft tumor [1]; MKN45 xenograft) was “the opposite was true” and the “Cells blocked from migrating” value (ASPC1) was 50–80%. The “Cells blocked from migrating” value (MHCC97H) was 50–80%, the IC50 (TRKC) was 0.0255 µM and the IC50 (TRKB) was 0.0237 µM. For the same compound, the IC50 (c-Met kinase) was 0.00098 µM, the IC50 (TRKA) was 0.111 µM and the “Toxicity in H&E-stained heart, liver, lung and kidney” value [2] was “no evidence of toxicity”. The TGI (MKN45 xenograft tumor [3]; 2 mg/kg/d) was 74.4%, the TGI (MKN45 xenograft tumor [3]; 4 mg/kg/d) was 90.7% and the TGI (MKN45 xenograft tumor [3]; 8 mg/kg/d) was 94.8%. The “Tumor growth inhibition (TGI)” value (MHCC97H xenograft tumor; 2 mg/kg) was 81.2%, the “Tumor growth inhibition (TGI)” value (MHCC97H xenograft tumor; 4 mg/kg) was 93.4% and the “Tumor growth inhibition (TGI)” value (MHCC97H xenograft tumor; 8 mg/kg) was 98.2%. For the same compound, the “Phosphorylated c-Met level” value [4] was “significant reduction”, the “Phosphorylated c-Met level” value [5] was “significant reduction” and the Apoptosis (MNK45 cell line; annexin V / PI staining) was 53–75%. The “Apoptosis, times higher than in the control group” value (MNK45 cell line) was 10–15 times.
